This note sets out measurements from US9492471B2, “Methods of treating a disease or disorder associated with Bruton'S Tyrosine Kinase” (Celgene Avilomics Research, Inc., priority 2013, dated 2016).

Holding throughout (experiment): HotSpot kinase profiling
Assay type in all cases: biochemical

The target in one test is T1, CAMK2b (Homo sapiens, UniProt Q13554).
T1 construct: purchased Reaction Biology Corp
The procedure:
(§1) The binding assay system for profiling kinase activity were based upon HotSpot technology (Reaction Biology Corp.; Malvern, Pa., USA) and utilized radio-isotope-based P81 filtration. […] Substrates for the various kinases tested against Compound 2 (substrate information available on the Reaction Biology Corp. website) were prepared fresh daily in Reaction Buffer. Any required cofactors were then added to the substrate solution. The identification and selection of the appropriate cofactor for each kinase is within the ability of a person skilled in the art. See, for example, Handbook of Assay Development in Drug Discovery, Ed. Lisa K. Minor, 2006: CRC Press, Boca Raton, Fla.; Gao et al., “A broad activity screen in support of a chemogenomic map for kinase signalling research and drug discovery,” Biochem J. 2013, 451(2): 313-28; and Eglen et al., “Drug discovery and the human kinome: Recent trends,” Pharmacology & Therapeutics 2011, 130(2): 144-156. The kinase was then added to the substrate solution and gently mixed. […] This was followed by incubation at room temperature for 2 h. The reaction was terminated and any unreacted phosphate was washed away using 0.1% phosphoric acid prior to detection utilizing a proprietary technology. […] DMSO was used as the negative control.
(§2) Percent inhibition was expressed as an average where the assay was performed more than once, e.g., in duplicate.

Another test addresses T2, PKCmu/PRKD1 (Homo sapiens, UniProt Q15139).
T2 construct: purchased Reaction Biology Corp
T2 sequence (Q15139 1-912): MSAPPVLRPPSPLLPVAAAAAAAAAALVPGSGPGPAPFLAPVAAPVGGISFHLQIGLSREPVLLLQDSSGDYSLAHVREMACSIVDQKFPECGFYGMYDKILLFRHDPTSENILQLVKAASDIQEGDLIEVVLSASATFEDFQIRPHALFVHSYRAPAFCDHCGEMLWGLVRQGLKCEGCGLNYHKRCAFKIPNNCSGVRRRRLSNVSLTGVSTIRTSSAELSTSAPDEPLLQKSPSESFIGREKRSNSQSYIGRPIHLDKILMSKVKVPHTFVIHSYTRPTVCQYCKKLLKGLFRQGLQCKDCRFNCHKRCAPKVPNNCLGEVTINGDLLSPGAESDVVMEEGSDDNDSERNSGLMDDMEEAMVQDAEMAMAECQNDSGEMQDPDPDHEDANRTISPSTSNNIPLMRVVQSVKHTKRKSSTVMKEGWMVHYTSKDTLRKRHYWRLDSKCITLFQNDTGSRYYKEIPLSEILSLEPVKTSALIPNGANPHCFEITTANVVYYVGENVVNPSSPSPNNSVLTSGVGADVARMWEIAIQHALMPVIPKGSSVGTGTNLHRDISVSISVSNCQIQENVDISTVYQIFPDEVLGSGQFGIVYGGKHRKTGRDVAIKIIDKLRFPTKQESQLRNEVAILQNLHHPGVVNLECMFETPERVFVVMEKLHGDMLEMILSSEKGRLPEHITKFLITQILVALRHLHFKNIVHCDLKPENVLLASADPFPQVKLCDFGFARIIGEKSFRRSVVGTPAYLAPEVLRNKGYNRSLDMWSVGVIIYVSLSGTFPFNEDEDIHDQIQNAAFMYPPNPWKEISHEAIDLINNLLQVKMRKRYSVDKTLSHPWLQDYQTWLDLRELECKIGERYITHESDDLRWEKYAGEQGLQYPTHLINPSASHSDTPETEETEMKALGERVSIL
As to the method: as §1, §2

The next test concerns the target T3, CDK4/cyclin D1 (Homo sapiens, UniProt P11802).
T3 construct: purchased Reaction Biology Corp
As to the method:
as §1, §2

The target of the next test is T4, DDR1 (Homo sapiens, UniProt Q08345).
T4 construct: purchased Reaction Biology Corp
T4 sequence (Q08345 19-913): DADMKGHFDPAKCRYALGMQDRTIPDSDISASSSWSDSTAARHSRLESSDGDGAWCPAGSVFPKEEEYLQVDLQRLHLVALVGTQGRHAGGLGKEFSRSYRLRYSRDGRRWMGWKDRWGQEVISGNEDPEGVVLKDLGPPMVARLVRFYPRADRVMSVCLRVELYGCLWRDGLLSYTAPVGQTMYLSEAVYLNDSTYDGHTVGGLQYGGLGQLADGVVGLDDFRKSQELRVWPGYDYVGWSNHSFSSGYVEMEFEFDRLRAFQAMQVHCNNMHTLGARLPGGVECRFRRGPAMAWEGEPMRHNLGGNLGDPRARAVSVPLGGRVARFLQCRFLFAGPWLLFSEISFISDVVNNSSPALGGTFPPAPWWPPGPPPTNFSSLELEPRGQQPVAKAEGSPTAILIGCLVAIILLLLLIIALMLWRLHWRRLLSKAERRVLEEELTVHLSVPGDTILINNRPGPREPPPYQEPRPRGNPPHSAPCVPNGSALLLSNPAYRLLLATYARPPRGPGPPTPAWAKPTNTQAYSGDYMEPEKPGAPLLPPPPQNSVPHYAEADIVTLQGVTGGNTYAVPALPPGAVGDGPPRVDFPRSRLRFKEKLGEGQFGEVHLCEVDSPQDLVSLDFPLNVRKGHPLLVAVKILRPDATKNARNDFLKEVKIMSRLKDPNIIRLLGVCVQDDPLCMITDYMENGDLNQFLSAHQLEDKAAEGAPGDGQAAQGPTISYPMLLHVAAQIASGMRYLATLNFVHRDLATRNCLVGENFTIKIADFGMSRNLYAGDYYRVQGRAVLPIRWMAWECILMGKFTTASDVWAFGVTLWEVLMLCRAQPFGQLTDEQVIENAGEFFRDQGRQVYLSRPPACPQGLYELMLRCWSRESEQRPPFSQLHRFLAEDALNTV
The procedure:
as §1, §2

A further test has as its target T5, TLK1 (Homo sapiens, UniProt Q9UKI8).
T5 construct: purchased Reaction Biology Corp
T5 sequence (Q9UKI8 1-766): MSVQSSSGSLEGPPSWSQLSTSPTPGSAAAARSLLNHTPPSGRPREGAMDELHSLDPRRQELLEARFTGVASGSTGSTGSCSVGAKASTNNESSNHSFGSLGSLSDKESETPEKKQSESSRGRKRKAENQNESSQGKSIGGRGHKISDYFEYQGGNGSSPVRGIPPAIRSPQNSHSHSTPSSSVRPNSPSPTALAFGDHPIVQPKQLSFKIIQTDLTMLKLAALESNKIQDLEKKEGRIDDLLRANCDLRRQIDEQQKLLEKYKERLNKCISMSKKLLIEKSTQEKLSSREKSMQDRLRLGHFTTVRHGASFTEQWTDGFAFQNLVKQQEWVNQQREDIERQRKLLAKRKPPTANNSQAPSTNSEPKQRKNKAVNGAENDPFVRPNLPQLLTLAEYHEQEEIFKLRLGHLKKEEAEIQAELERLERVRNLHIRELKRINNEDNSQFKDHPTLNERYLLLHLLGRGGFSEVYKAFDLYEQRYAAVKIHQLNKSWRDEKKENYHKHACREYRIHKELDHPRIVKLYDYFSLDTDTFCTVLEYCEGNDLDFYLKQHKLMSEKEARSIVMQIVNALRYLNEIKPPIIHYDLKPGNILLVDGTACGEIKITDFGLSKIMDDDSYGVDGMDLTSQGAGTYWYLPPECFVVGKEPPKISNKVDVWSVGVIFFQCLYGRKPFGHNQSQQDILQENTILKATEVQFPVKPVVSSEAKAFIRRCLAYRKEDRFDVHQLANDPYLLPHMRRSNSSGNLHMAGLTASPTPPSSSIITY
The procedure: as §1, §2

Another test has as its target T6, HIPK1 (Homo sapiens, UniProt Q86Z02).
T6 construct: purchased Reaction Biology Corp
As to the method:
as §1, §2

The next test concerns the target T7, NEK4 (Homo sapiens, UniProt P51957).
T7 construct: purchased Reaction Biology Corp
The procedure: as §1, §2

Setting [1] is: read-out: % Enzyme Activity (relative to DMSO controls) Run 1.
[2] abbreviates: read-out: % Enzyme Activity (relative to DMSO controls) Run 2.

Where two headings read alike, the source gives them in different places.

T6 sequence (Q86Z02 whole entry): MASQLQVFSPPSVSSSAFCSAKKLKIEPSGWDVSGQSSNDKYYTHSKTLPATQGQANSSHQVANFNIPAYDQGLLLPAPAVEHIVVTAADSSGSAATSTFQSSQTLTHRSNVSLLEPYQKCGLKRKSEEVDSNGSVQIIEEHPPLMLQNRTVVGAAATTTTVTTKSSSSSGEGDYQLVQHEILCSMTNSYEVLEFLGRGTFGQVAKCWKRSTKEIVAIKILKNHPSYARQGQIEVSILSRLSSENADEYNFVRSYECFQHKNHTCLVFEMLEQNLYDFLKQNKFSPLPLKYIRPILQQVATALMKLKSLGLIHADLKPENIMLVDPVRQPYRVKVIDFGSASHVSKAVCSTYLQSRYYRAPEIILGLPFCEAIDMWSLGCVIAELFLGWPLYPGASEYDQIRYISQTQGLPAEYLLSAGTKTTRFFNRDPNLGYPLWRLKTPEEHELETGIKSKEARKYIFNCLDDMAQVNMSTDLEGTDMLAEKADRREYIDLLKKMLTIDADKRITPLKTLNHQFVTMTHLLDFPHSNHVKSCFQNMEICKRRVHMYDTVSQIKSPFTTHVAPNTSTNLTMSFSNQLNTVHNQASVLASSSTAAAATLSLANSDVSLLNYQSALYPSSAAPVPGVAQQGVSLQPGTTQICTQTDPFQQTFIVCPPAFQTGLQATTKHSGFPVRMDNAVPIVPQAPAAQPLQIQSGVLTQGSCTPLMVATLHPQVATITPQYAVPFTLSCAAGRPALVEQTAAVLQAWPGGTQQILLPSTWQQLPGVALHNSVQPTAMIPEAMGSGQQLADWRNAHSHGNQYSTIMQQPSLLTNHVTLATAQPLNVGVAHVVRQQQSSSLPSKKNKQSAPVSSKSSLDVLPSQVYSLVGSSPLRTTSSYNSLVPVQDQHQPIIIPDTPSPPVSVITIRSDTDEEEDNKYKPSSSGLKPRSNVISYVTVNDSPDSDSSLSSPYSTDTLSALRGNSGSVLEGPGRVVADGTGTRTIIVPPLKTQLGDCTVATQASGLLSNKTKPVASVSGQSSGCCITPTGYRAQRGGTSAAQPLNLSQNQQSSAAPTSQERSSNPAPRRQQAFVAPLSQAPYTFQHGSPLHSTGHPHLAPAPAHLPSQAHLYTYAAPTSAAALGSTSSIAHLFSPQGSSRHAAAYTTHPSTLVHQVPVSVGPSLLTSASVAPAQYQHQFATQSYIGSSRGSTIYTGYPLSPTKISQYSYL
T3 sequence (P11802 whole entry): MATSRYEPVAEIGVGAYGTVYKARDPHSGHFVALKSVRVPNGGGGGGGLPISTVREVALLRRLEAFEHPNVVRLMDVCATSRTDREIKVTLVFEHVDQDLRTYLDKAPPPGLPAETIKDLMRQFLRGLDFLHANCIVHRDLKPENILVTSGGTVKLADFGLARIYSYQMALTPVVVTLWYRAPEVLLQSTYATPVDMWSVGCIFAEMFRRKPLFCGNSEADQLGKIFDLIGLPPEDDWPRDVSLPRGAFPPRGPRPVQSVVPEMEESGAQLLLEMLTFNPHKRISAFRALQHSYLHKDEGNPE
T3 sequence (P24385 whole entry partner): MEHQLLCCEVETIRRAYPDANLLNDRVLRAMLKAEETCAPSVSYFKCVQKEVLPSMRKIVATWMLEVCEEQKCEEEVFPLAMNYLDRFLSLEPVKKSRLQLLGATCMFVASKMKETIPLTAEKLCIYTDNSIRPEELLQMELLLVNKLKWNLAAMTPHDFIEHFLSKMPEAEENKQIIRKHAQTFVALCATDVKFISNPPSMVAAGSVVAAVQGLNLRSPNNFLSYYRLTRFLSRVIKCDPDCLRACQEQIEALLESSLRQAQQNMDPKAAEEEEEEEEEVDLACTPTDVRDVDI
T1 sequence (Q13554 whole entry): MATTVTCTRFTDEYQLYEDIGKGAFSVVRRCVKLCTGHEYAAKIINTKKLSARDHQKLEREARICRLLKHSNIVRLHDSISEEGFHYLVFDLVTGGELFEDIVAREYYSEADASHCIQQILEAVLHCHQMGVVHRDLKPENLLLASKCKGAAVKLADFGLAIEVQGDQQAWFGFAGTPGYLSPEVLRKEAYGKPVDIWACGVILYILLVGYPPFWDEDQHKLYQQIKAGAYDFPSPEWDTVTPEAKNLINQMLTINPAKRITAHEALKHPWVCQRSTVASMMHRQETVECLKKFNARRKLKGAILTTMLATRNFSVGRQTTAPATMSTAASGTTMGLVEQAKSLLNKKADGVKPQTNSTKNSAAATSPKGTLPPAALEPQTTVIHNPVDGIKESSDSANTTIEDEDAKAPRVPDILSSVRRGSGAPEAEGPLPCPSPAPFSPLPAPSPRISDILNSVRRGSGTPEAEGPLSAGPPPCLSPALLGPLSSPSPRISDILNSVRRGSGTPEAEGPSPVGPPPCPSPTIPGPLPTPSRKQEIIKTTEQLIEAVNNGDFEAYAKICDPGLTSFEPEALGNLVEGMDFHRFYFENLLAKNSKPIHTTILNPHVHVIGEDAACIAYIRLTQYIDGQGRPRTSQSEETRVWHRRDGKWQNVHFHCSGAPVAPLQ
T7 sequence (P51957 whole entry): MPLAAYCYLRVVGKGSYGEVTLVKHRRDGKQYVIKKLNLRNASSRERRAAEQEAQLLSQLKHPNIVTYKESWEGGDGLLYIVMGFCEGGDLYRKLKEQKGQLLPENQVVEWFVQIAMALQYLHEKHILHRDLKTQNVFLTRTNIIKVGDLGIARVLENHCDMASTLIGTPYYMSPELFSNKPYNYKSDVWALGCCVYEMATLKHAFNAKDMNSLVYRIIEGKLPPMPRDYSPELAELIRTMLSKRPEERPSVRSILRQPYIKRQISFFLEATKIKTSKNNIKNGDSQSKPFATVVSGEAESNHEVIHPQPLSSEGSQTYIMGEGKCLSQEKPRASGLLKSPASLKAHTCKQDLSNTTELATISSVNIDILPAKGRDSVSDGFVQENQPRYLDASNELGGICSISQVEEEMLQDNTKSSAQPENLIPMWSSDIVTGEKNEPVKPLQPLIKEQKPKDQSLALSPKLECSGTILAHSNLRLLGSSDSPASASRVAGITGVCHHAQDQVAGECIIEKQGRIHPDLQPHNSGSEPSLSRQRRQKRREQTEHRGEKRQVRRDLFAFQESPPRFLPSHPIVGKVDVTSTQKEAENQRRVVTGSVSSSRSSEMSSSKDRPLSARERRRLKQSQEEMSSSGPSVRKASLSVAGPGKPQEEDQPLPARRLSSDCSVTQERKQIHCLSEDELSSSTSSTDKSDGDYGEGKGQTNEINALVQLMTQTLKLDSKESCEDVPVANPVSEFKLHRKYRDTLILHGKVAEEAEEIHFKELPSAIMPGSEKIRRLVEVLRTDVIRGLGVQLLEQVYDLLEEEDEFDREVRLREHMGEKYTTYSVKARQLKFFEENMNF

By inhibition is commonly meant the change of the read-out against control, counted positive when it falls. In the case of `C=CC(=O)Nc1cccc(Nc2nc(Nc3ccc(OCCOC)c(F)c3)ncc2F)c1` [Compound 2], the inhibition at 3 µM against CAMK2b is 3.89%; against PKCmu/PRKD1 it was 24.6%; at CDK4/cyclin D1, 4.07%; on DDR1, 75.1%; on TLK1 it was -2.91%; against HIPK1 it was 10.3%. Further, at NEK4, the inhibition at 3 µM was 13.5%. Further, the remaining activity at 3 µM at CAMK2b (setting [1]) came to 96.4%; at CAMK2b (setting [2]) it was 95.8%; on PKCmu/PRKD1 (setting [1]) it was 74.8%; on PKCmu/PRKD1 (setting [2]), 75.8%; on CDK4/cyclin D1 (setting [1]), 95.6%; at CDK4/cyclin D1 (setting [2]), 96.3%. For the same compound, the remaining activity at 3 µM on DDR1 (setting [1]) was determined as 25.7%; on DDR1 (setting [2]) it was 24.1%; on TLK1 (setting [1]), 102%; at TLK1 (setting [2]), 103%; at HIPK1 (setting [1]), 87.6%; at HIPK1 (setting [2]) it was 91.7%. The remaining activity at 3 µM is 84.6% on NEK4 (setting [1]) and 88.3% at NEK4 (setting [2]).
